Laboratory results as given in US20260224555A1, “NEW PHENYLQUINOLONE COMPOUND HAVING ANTIBACTERIAL AND ANTI-CANCER FUNCTIONS AND PREPARATION THEREOF” (AlphaMol Science Ltd (Shanghai), priority 2022, published 2026).
In brackets after ≈: the same amount, converted by molar mass. Read-outs that look alike come from different tables or passages of the source.

Experiments:
Type in all cases: cell-based
E. coli ATCC 25922 = test: In vitro antibacterial activity assay (MIC, broth dilution); conditions: Escherichia coli
Excerpt: (§1) The method used to indicate the activity of the compounds in this example is to record the minimum inhibitory concentration (MIC) of the compounds against bacteria. The specific experimental method is as follows:
(§2) 1. The bacterial liquid cultured from a single colony was taken, and diluted into autoclaved CAMHB broth in a ratio of 1:1000, and mixed well.
(§3) 2. The prepared drug solution was filtered through a sterile 0.22 µm syringe filter and placed in a sterile EP tube for later use.
(§4) 3. A 96-well plate was taken, and 20 µL of drug solution ([…]) was added to each well in the first column of the 96-well plate. Then, 180 µL of diluted bacterial liquid was added and mixed well (Perform 3 replicate rows for each drug).
(§5) The same process was performed for the hydrochloride drug.
(§6) 4. 100 μL of diluted bacterial liquid was added to each well in the remaining 11 columns of the 96-well plate. Drugs are the same as above.
(§7) 5. Serial dilution: 100 μL of liquid was taken from the first column to the second column, mixed well, then 100 μL of liquid was taken from the second column to the third column, mixed well, and so on, sequentially diluting down to the last column (column 12). After mixing column 12 well, 100 μL of liquid thereof was discarded. The drug concentration in each well was decreased by two-fold serially (the concentration in the first well is 40 μg/mL).
(§8) 6. Blank CAMHB broth without added bacteria liquid was added to 3 blank wells in the 96-well plate, as negative control.
(§9) 7. The diluted bacterial liquid was added to 3 blank wells in the 96-well plate, as positive control.
(§10) 8. Incubated at 37° C. for 16 hours.
(§11) 9. Results reading: the minimum inhibitory concentration is the minimum drug concentration at which no bacterial growth is visible to the naked eye and without turbidity.

S. aureus ATCC 43300 = test: as above; conditions: Staphylococcus aureus
Excerpt: as §1, §2, §3, §4, §5, §6, §7, §8, §9, §10, §11

Hela = test: In vitro anticancer activity test (MTT cell proliferation); conditions: Homo sapiens, read-out: Hela Average inhibition rate %
Procedure: The anticancer activity of the compounds was tested using an in vitro cancer cell tests. The specific test method is as follows:
1. Cell recovery and culture method: the cryovial was taken out from the liquid nitrogen container firstly, soaked directly in 37° C. warm water, and shaked from time to time to let it thaw as soon as possible. Then, the cryovial was transferred to a clean bench, and the lid was open. The cell suspension was taken into a centrifuge tube using a rubber-tipped dropper and more than 10 times the culture medium was added, mixed well, and centrifuged at 50 g for 5 minutes. Then, the supernatant was discarded, complete culture medium containing 10% fetal bovine serum was added to resuspend the cells, the cells was counted, the cell density was adjusted, and then inoculated into a culture bottle. The culture bottle was placed in a cell culture incubator at 5% CO2 and 37° C. The complete culture medium was replaced once the next day and the culture was continued.
2. Cell passaging method: adherent cells in the logarithmic growth phase were placed in a clean bench, the original culture medium was discarded, and washed three times with 1×PBS. An appropriate amount of 0.25% trypsin digestion solution was added to moisten the cells, and then the trypsin solution was aspirated. The cells were placed in a cell culture incubator at 5% CO2 and 37° C. for digestion for a suitable time, and observed under a microscope. When 90% of the cells become round, the cells were moved immediately to the clean bench and complete culture medium was added to terminate digestion. Then, the cells were dislodged by pipetting up and down with a rubber-tipped dropper to single cells. The cells were counted, and the cell density was adjusted. The cells were inoculated into a suitable culture bottle or dish, added enough complete culture medium, and placed in a cell culture incubator at 5% CO2 and 37° C. for static culture.
For suspension cells in the logarithmic phase, the original culture medium was directly centrifuged at 50 g for 5 minutes, the supernatant was discarded, and the cells were washed once with PBS and centrifuged. After discarding the supernatant, the complete culture medium was added and the cells were dispersed using a rubber-tipped dropper. The cells are counted, and the cell density was adjusted. The cells were inoculated into appropriate culture bottles or culture dishes, and sufficient complete culture medium was added, and the cells were cultured in a cell culture incubator at 5% CO2 and 37° C.
3. Cell proliferation assay: cells in good state in logarithmic phase were taken and appropriate amount of the cells was inoculated into 96-well plates according to the cell passage treatment method, with each well containing 180 μL complete medium. After the cells growth was recovered and the number of cells in each well is 5000±500, a drug was added for treatment.
After drug treatment during the experimental time, MTT solution with a final concentration of 0.5 mg/mL was added to each well, and placed in a cell culture incubator at 5% CO2 and 37° C. to allow a fully reaction of MTT with cells. After 4 hours, the solution in the 96-well plate was discarded, 100 µL of DMSO was added, and shaked to dissolve the formazan precipitated at the bottom of the plate, and the absorbance value of samples was detected at a wavelength of 570 nm using a microplate reader. Calculation method of cell viability rate:
Table 4 lists some compounds that have inhibitory effects against both of bacteria and cancer cells. In the table, the inhibitory effects against cancer cells are shown: the average proliferation inhibition rate (%) against cancer cells at the dosage of 40 μM.

[1] = test system: Staphylococcus aureus ATCC43300; test: Resistance test of bacteria against compounds (serial induction, 21 days); conditions: period of 21 days, S. aureus ATCC43300
Procedure: This example provides a resistance test of bacteria against compounds, and the specific experimental method is as follows.
1. […] It was ensured that among the 6 final concentrations of the drug diluted into the wells, some were higher than the original MIC of the bacteria and some were lower than the original MIC of the bacteria.
2. Preparation of bacterial liquid: 10 mL of culture medium was taken and added to a sterilized plate using a pipette, then 100 µL of the above-mentioned passaged bacterial liquid was added, and mixed well for later use.
3. The above-mentioned diluted bacterial liquid was taken and added to a 96-well plate using a pipette, 180 μL per well, 3 wells per group, 6 groups in total. 20 μL of drug solution was added to each well (note: it is necessary to replace the pipette tip each time the drug is added), so that the final drug concentrations were […], respectively. The well with 200 μL of diluted bacterial liquid was used as the positive control well, and the well with 200 μL of culture medium was used as the negative control well.
The test object was Staphylococcus aureus (S. aureus).

[2] = ATCC25922, Table 3, read-out: MIC E. coli ATCC 25922
[3] = ATCC43300, Table 3, read-out: MIC S. aureus ATCC 43300
[4] = ATCC25922, Table 4, read-out: E. coli ATCC 25922 MIC
[5] = ATCC43300, Table 4, read-out: S. aureus ATCC 43300 MIC
[6] = average proliferation inhibition rate at the dosage of 40 μM

**Q.** What does the source list for `Nc1cnc(-c2cc3c(cc2F)c(=O)c(C(=O)O)cn3C2CC2)cc1F` [Example 91]?
**A.** MIC (E. coli ATCC 25922; [2]): 0.1 to 1 µg/mL (≈ 0.28 to 2.8 µM); MIC (S. aureus ATCC 43300; [3]): 0.1 to 1 µg/mL (≈ 0.28 to 2.8 µM)

**Q.** Which MIC (E. coli ATCC 25922; ATCC25922, read-out: E. coli ATCC 25922 MIC) does the source give for `CC(=O)Nc1ccc(-c2cc3c(cc2F)c(=O)c(C(=O)O)cn3C2CC2)nc1` [Example 93] here?
**A.** ≤ 1 µg/mL

**Q.** What about the MIC (E. coli ATCC 25922; ATCC25922, read-out: MIC E. coli ATCC 25922) of the same compound?
**A.** 0.1 to 1 µg/mL (≈ 0.262 to 2.62 µM)

**Q.** And the MIC (S. aureus ATCC 43300; ATCC43300, read-out: MIC S. aureus ATCC 43300)?
**A.** 0.1 to 1 µg/mL (≈ 0.262 to 2.62 µM)

**Q.** And the MIC (S. aureus ATCC 43300; ATCC43300, read-out: S. aureus ATCC 43300 MIC)?
**A.** ≤ 1 µg/mL

**Q.** What about the inhibition at 40 µM (Hela) of the same compound?
**A.** ≥ 20%

**Q.** With `O=C(CCl)Nc1cnc(-c2cc3c(cc2F)c(=O)c(C(=O)O)cn3C2CC2)cn1` [Example 96] as the compound, how does the MIC (E. coli ATCC 25922; [2]) read?
**A.** ≤ 0.1 µg/mL

**Q.** What about the MIC (S. aureus ATCC 43300; [3]) of the same compound?
**A.** ≤ 0.1 µg/mL

**Q.** With `O=C(O)c1cn(C2CC2)c2cc(-c3ccc4c(c3)CNS4(=O)=O)c(F)cc2c1=O` [Example 107] as the compound, how does the MIC (E. coli ATCC 25922; [2]) read?
**A.** 0.1 to 1 µg/mL (≈ 0.241 to 2.41 µM)

**Q.** And the MIC (E. coli ATCC 25922; [4])?
**A.** ≤ 1 µg/mL

**Q.** What about the MIC (S. aureus ATCC 43300; [3]) of the same compound?
**A.** ≤ 0.1 µg/mL

**Q.** And the MIC (S. aureus ATCC 43300; [5])?
**A.** ≤ 1 µg/mL

**Q.** What about the inhibition at 40 µM (Hela; [6]) of the same compound?
**A.** ≥ 20%

**Q.** Which results are given for `COc1c(-c2ccc(S(N)(=O)=O)c([N+](=O)[O-])c2)c(F)cc2c(=O)c(C(=O)O)cn(C3CC3)c12` [Example 110]?
**A.** MIC (E. coli ATCC 25922; [2]): ≤ 0.1 µg/mL; MIC (S. aureus ATCC 43300; [3]): ≤ 0.1 µg/mL

**Q.** Which MIC (E. coli ATCC 25922; [2]) does the source give for `N#Cc1cc(-c2cc3c(cc2F)c(=O)c(C(=O)O)cn3C2CC2)ccc1S(=O)(=O)NCCCC(F)(F)F` [Example 111] here?
**A.** 0.1 to 1 µg/mL (≈ 0.186 to 1.86 µM)

**Q.** And the MIC (S. aureus ATCC 43300; [3])?
**A.** 0.1 to 1 µg/mL (≈ 0.186 to 1.86 µM)

**Q.** Which MIC (E. coli ATCC 25922; [2]) does the source give for `O=C(O)c1cn(C2CC2)c2cc(-c3ccc4c(c3)S(=O)(=O)NC4)c(F)cc2c1=O` [Example 113] here?
**A.** ≤ 0.1 µg/mL

**Q.** What about the MIC (E. coli ATCC 25922; [4]) of the same compound?
**A.** ≤ 1 µg/mL

**Q.** And the MIC (S. aureus ATCC 43300; [3])?
**A.** ≤ 0.1 µg/mL

**Q.** And the MIC (S. aureus ATCC 43300; [5])?
**A.** ≤ 1 µg/mL

**Q.** And the inhibition at 40 µM (Hela; [6])?
**A.** ≥ 20%

**Q.** How did the MIC (E. coli ATCC 25922; [2]) turn out when `C#CCNS(=O)(=O)c1ccc(-c2cc3c(cc2F)c(=O)c(C(=O)O)cn3C2CC2)cc1[N+](=O)[O-]` [Example 116] was run?
**A.** 0.1 to 1 µg/mL (≈ 0.206 to 2.06 µM)

**Q.** And the MIC (S. aureus ATCC 43300; [3])?
**A.** 0.1 to 1 µg/mL (≈ 0.206 to 2.06 µM)

**Q.** How did the MIC (E. coli ATCC 25922; [2]) turn out when `CCCCCCCNS(=O)(=O)c1ccc(-c2cc3c(cc2F)c(=O)c(C(=O)O)cn3C2CC2)cn1` [Example 128] was run?
**A.** 1 to 8 µg/mL (≈ 1.99 to 15.9 µM)

**Q.** And the MIC (E. coli ATCC 25922; [4])?
**A.** ≥ 1 µg/mL

**Q.** And the MIC (S. aureus ATCC 43300; [3])?
**A.** ≤ 0.1 µg/mL

**Q.** What about the MIC (S. aureus ATCC 43300; [5]) of the same compound?
**A.** ≤ 1 µg/mL

**Q.** What about the inhibition at 40 µM (Hela; [6]) of the same compound?
**A.** ≥ 20%

**Q.** How did the MIC (E. coli ATCC 25922; [2]) turn out when `COc1c(-c2ccnc(CO)c2)c(F)cc2c(=O)c(C(=O)O)cn(C3CC3)c12` [Example 148] was run?
**A.** ≤ 0.1 µg/mL

**Q.** What about the MIC (E. coli ATCC 25922; [4]) of the same compound?
**A.** ≤ 1 µg/mL

**Q.** And the MIC (S. aureus ATCC 43300; [3])?
**A.** 1 to 8 µg/mL (≈ 2.6 to 20.8 µM)

**Q.** And the MIC (S. aureus ATCC 43300; [5])?
**A.** ≥ 1 µg/mL

**Q.** And the inhibition at 40 µM (Hela; [6])?
**A.** ≥ 20%

**Q.** For `Nc1cc(-c2c(F)cc3c(=O)c(C(=O)O)cn(C4CC4)c3c2Cl)ccn1` [Example 151], which MIC (E. coli ATCC 25922; [2]) is on record?
**A.** ≤ 0.1 µg/mL

**Q.** What about the MIC (E. coli ATCC 25922; [4]) of the same compound?
**A.** ≤ 1 µg/mL

**Q.** What about the MIC (S. aureus ATCC 43300; [3]) of the same compound?
**A.** ≤ 0.1 µg/mL

**Q.** What about the MIC (S. aureus ATCC 43300; [5]) of the same compound?
**A.** ≤ 1 µg/mL

**Q.** And the inhibition at 40 µM (Hela; [6])?
**A.** ≥ 20%

**Q.** For `CN[C@H](CC(C)C)C(=O)N[C@H]1C(=O)N[C@@H](CC(N)=O)C(=O)N[C@H]2C(=O)N[C@H]3C(=O)N[C@H](C(=O)N[C@H](C(=O)O)c4cc(O)cc(O)c4-c4cc3ccc4O)[C@H](O)c3ccc(c(Cl)c3)Oc3cc2cc(c3O[C@@H]2O[C@H](CO)[C@@H](O)[C@H](O)[C@H]2O[C@H]2C[C@](C)(N)[C@H](O)[C@H](C)O2)Oc2ccc(cc2Cl)[C@H]1O` [vancomycin], which MIC at the end of the resistance experiment [1] is on record?
**A.** 4 µg/mL
